From ChEMBL document CHEMBL1177740, “Steroidal saponins from two species of Dracaena” (J Nat Prod, 2010)

Key:
[1] = tested on: HCT-116; assay: Cytotoxicity against human HCT116 cells by MTT assay; type: functional, cell-based
[2] = tested on: HT-29; assay: Cytotoxicity against human HT-29 cells by MTT assay; type: functional, cell-based

SMILES | IC50 [1] [µM] | IC50 [2] [µM]
C[C@@H]1CC[C@@]2(OC1)O[C@H]1C[C@H]3[C@@H]4CC=C5C[C@@H](O[C@@H]6O[C@H](CO)[C@@H](O)[C@H](O[C@@H]7O[C@@H](C)[C@H](O)[C@@H](O)[C@H]7O)[C@H]6O)CC[C@]5(C)[C@H]4CC[C@]3(C)[C@@]1(O)[C@@H]2C [MANIOSIDE A] | 43 | 56.2
C[C@@H]1CC[C@]2(OC1)O[C@H]1C[C@H]3[C@@H]4CC=C5C[C@@H](O[C@@H]6O[C@H](CO)[C@@H](O)[C@H](O[C@@H]7O[C@@H](C)[C@H](O)[C@@H](O)[C@H]7O)[C@H]6O[C@@H]6O[C@@H](C)[C@H](O)[C@@H](O)[C@H]6O)CC[C@]5(C)[C@H]4CC[C@]3(C)[C@@]1(O)[C@@H]2C | 2.04 | 1.67
C[C@@H]1O[C@@H](O[C@H]2[C@H](O[C@H]3CC[C@@]4(C)C(=CC[C@@H]5[C@@H]4CC[C@@]4(C)[C@H]5C[C@@H]5O[C@@]6(C[C@@H](O)[C@@H](C)CO6)[C@@H](C)[C@@]54O)C3)O[C@H](CO)[C@@H](O)[C@@H]2O[C@@H]2O[C@@H](C)[C@H](O)[C@@H](O)[C@H]2O)[C@H](O)[C@H](O)[C@H]1O [ARBOREASAPONIN B] | 100 | 100
CC(=O)O[C@H]1C(=O)[C@@]2(C)[C@H]([C@H](OC(=O)c3ccccc3)[C@]3(O)C[C@H](OC(=O)[C@H](O)[C@@H](NC(=O)c4ccccc4)c4ccccc4)C(C)=C1C3(C)C)[C@]1(OC(C)=O)CO[C@@H]1C[C@@H]2O [PACLITAXEL] | 0.00321 | 0.0014
C=C1CO[C@@]2(O[C@H]3C[C@H]4[C@@H]5CC=C6C[C@@H](O)C[C@@H](O[C@@H]7OC[C@H](O)[C@H](O[C@@H]8OC[C@@H](O)[C@H](O)[C@H]8O[C@@H]8O[C@@H](C)[C@H](O)[C@@H](O)[C@H]8O)[C@H]7O)[C@]6(C)[C@H]5CC[C@]4(C)[C@H]3[C@@H]2C)[C@@H](O)[C@H]1O[C@@H]1OC[C@H](O)[C@H](O)[C@H]1O | 29 | 29.5
CC(=O)OC[C@H]1O[C@@H](O[C@H]2CC[C@@]3(C)C(=CC[C@@H]4[C@@H]3CC[C@@]3(C)[C@H]4C[C@@H]4O[C@@]5(CC[C@@H](C)CO5)[C@@H](C)[C@@]43O)C2)[C@H](O[C@@H]2O[C@@H](C)[C@H](O)[C@@H](O)[C@H]2O)[C@@H](O[C@@H]2O[C@@H](C)[C@H](O)[C@@H](O)[C@H]2O)[C@@H]1O [ARBOREASAPONIN A] | 7.6 | 8.54
C=C1CO[C@]2(O[C@H]3C[C@H]4[C@@H]5CC=C6C[C@@H](O)C[C@@H](O[C@@H]7O[C@H](C)[C@H](O)[C@H](O[C@@H]8O[C@@H](C)[C@H](O)[C@@H](O)[C@H]8O)[C@H]7O[C@@H]7OC[C@@H](O)[C@H](O)[C@H]7O)[C@]6(C)[C@H]5CC[C@]4(C)[C@H]3[C@@H]2C)[C@@H](O)[C@H]1O[C@@H]1OC[C@H](O)[C@H](O)[C@H]1O [DEISTELIANOSIDE B] | 21.2 | 70.7
